According to patent US8080517B2, “Cell-permeable peptide inhibitors of the JNK signal transduction pathway” (Xigen SA, priority 2005, dated 2011):
Where a SMILES comes first, the peptide text is derived from it. [ ]: non-standard residue; d: D form.

Columns and labels:
[1] = test system: recombinant JNK1, JNK2, or JNK3 kinases; test: Solid phase kinase assay, phosphorylation of c-Jun, ATF2 and Elk1 by recombinant JNKs; format: biochemical; settings: GST-Jun (aa 1-73), 0-250 μM dosage study
Protocol: The effects of the peptides on JNKs-mediated phosphorylation of their target transcription factors were investigated in vitro. Recombinant and non activated JNK1, JNK2 and JNK3 were produced using a TRANSCRIPTION AND TRANSLATION rabbit reticulocyte lysate kit (Promega) and used in solid phase kinase assays with c-Jun, ATF2 and Elk1, either alone or fused to glutathione-S-transferase (GST), as substrates. Dose response studies were performed wherein inventive L-TAT or L-TAT-IB1(s) peptides (0-25 μM) were mixed with the recombinant JNK1, JNK2, or JNK3 kinases in reaction buffer (20 mM Tris-acetate, 1 mM EGTA, 10 mM p-nitrophenyl-phosphate (pNPP), 5 mM sodium pyrophosphate, 10 mM p-glycerophosphate, 1 mM dithiothreitol) for 20 minutes. The kinase reactions were then initiated by the addition of 10 mM MgCl2 and 5 pCi […] and 1 μg of either GST-Jun (aa 1-89), GST-AFT2 (aa 1-96) or GST-ELK1 (aa 307-428). GST-fusion proteins were purchased from Stratagene (La Jolla, Calif.).
Ten μL of glutathione-agarose beads were also added to the mixture. Reaction products were then separated by SDS-PAGE on a denaturing 10% polyacrylamide gel. Gels were dried and subsequently exposed to X-ray films (Kodak). […] The ability of D-TAT, inventive D-TAT-IB1(s) and inventive L-TAT-IB1(s) peptides (0-250 μM dosage study) to inhibit GST-Jun (aa 1-73) phosphorylation by recombinant JNK1, JNK2, and JNKS by were analyzed as described above. Overall, D-TAT-IB1(s) peptide decreased JNK-mediated phosphorylation of c-Jun, but at levels approximately 10-20 fold less efficiently than L-TAT-IB1(s).

[2] = test system: WiDr cells; test: Irradiation (30 Gy) induced apoptosis; format: cell-based, human; settings: 1 μM added 30 minutes before 30 Gy, analyzed 48 hours later
Protocol: JNK is also activated by ionizing radiation. To determine whether inventive TAT-IB(s) peptides would provide protection against radiation-induced JNK damage, “WiDr” cells were irradiated (30 Gy) in presence or absence of D-TAT, inventive L-TAT-IB1(s) or inventive D-TAT-IB1(s) peptides (1 μM added 30 minutes before irradiation). Control cells (CTRL) were not irradiated. Cells were analyzed 48 hours later by means of PI and Hoechst 3342 staining, as described above. N=3, SEM are indicated.

[3] = test system: cortical neuronal culture; test: LDH release from cortical neuronal cultures following NMDA stimulation; format: cell-based, rat; settings: 5 μM pre-treatment 30 min, 100 μM NMDA, 12 h
Protocol: The neuroprotective effect of the D-TAT-IB (generic)(s)/D-JNKI1 peptide (SEQ ID NO: 12) was evaluated in sister cultures pre-treated for 30 min with the indicated concentrations of peptides or MK-801 before continuous exposure to 100 μM NMDA.
Cortical neuronal culture. We dissected small pieces of cortex from the brains of two day old rat pups, incubated them with 200 units of papain for 30 min at 34° C., and then plated the neurons at densities of approximately 1×10^6 cells/plate on dishes pre-coated with 100 μg/ml poly-D-lysine. The plating medium consisted of B27/Neurobasal (Life Technologies, Gaithersburg, Md.) supplemented with 0.5 mM glutamine, 100 U/ml penicillin and 100 ug/ml streptomycin.
Lactate dehydrogenate (LDH) cytotoxicity assay. LDH released into the bathing medium 12, 24 and 48 h after NMDA administration was measured using the Cytotox 96 non-radioactive cytotoxicity assay kit (Promega, Wis.) (see FIG. 5).

[4] = test system: endogenous JNK activity in HepG2 cells; test: Inhibition of endogenous IL-1β-induced JNK activity in HepG2 cells, AlphaScreen all-in one well approach; format: cell-based; settings: FIG. 6 panel d
Protocol: HepG2 cells were seeded at 3,000 cells/well the day prior the experiment. Then, increasing concentrations of either interleukin-1β [IL-1β(▪)] or tumor necrosis factor α[TNFα(●)] (a) were added to activate JNK for 30 minutes. Cells were lysed in 20 mM Hepes, 0.5% Tween pH 7.4 and processed for AlphaScreen JNK. (b) Z′ for the JNK activity induced by 10 ng/ml IL-1β and measured in 384 wells/plate (n=96). (c) Inhibition of endogenous IL-1β-induced JNK activity with chemical JNK inhibitors [staurosporin (∘) and SP600125 (●)]. (d) Effect of peptidic inhibitors L-TAT-IB1(s) according to SEQ ID NO: 9 [here abbreviated as L-JNKi (▪)) and D-TAT-IB1(s) according to SEQ ID NO: 11 (here abbreviated as D-JNKi (□)) and JBDs (●) (corresponds to L-JNKI without the TAT sequence)] on […] dependent JNK activity. All panels are representative of three independent experiments (n=3).
Methods: Alphascreen Kinase Assay
Principle: AlphaScreen is a non-radioactive bead-based technology used to study biomolecular interactions in a microplate format. The acronym ALPHA stands for Amplified Luminescence Proximity Homogenous Assay. […]
Kinase reagents (B-GST-cJun, anti P-cJun antibody and active JNKS) were first diluted in kinase buffer (20 mM Tris-HCl pH 7.6, 10 mM MgCl2, 1 mM DTT, 100 μM Na3VO4, 0.01% Tween-20) and added to wells (15 μl). […] AlphaScreen signal was analyzed directly on the Fusion or En Vision apparatus.

`CC(C)C[C@@H](NC(=O)[C@@H](Cc1ccccc1)NC(=O)[C@H]1CCCN1C(=O)[C@@H](CCC(N)=O)NC(=O)[C@H](NC(=O)[C@H]1CCCN1C(=O)[C@@H](CCCNC(=N)N)NC(=O)[C@@H](CO)NC(=O)[C@@H](CCC(N)=O)NC(=O)[C@H](N)CC(=O)O)C(C)C)C(=O)N[C@H](CC(N)=O)C(=O)N[C@H](CC(C)C)C(=O)N[C@@H](C(=O)N[C@@H](C(=O)N1CCC[C@@H]1C(=O)N[C@H](CCCNC(=N)N)C(=O)N[C@H](CCCCN)C(=O)N1CCC[C@@H]1C(=O)N[C@H](CCCNC(=N)N)C(=O)N1CCC[C@@H]1C(=O)N1CCC[C@@H]1C(=O)N[C@H](CCCNC(=N)N)C(=O)N[C@H](CCCNC(=N)N)C(=O)N[C@H](CCCNC(=N)N)C(=O)N[C@H](CCC(N)=O)C(=O)N[C@H](CCCNC(=N)N)C(=O)N[C@H](CCCNC(=N)N)C(=O)N[C@H](CCCCN)C(=O)N[C@H](CCCCN)C(=O)N[C@H](CCCNC(=N)N)C(=O)NCC(=O)O)[C@H](C)O)[C@H](C)O` [D-TAT-IB1(s)] (H-[dD][dQ][dS][dR][dP][dV][dQ][dP][dF][dL][dN][dL][dT][dT][dP][dR][dK][dP][dR][dP][dP][dR][dR][dR][dQ][dR][dR][dK][dK][dR]G-OH) was tested. Which “efficiency in decreasing JNK-mediated phosphorylation of c-Jun, fold less efficient than L-TAT-IB1(s)” value [1] did it give?
The value was 10-20 fold.

What about the “prevention of irradiation induced apoptosis” value [2] of the same compound?
The value was “able to prevent irradiation induced apoptosis”.

What about the “degenerative changes due to NMDA exposure (LDH release above controls)” value [3] of the same compound?
Its value is “completely inhibited”.

What about the “morphological appearance, number and distribution of the neurons” value [3] of the same compound?
Its value is “indistinguishable from the controls”.

What about the “inhibition of endogenous JNK activity” value [4] of the same compound?
Its value is “effectively inhibits JNK activity, even better than L-TAT-IB1(s)”.
